Measurements from patent US20160158317A1, “Antimicrobial Peptide Variants and Polynucleotides Encoding Same” (Adenium Biotech A/S, priority 2010, published 2016).
Where a SMILES comes first, the peptide text is derived from it. Bridges are numbered along the chain shown (N, C = ends).

Experiment: Determination of the protein binding (90% serum, 30 kDa filter, HPLC)
Type: in vitro ADME
Conditions: serum
Experimental: Protein binding assays were performed as follows. The purified peptides were mixed with 90% serum and centrifuged through a 30 kDa filter. The ultra-filtrate and the non filtrated serum samples were quantified by HPLC measurements and the protein binding was subsequently calculated.

Compound	fraction unbound
CC(C)[C@@H]1NC(=O)CNC(=O)[C@H](CC(N)=O)NC(=O)[C@H](CCCNC(=N)N)NC(=O)[C@H](Cc2ccc(O)cc2)NC(=O)[C@H](C(C)C)NC(=O)[C@@H]2CSSC[C@H](NC(=O)[C@H](Cc3ccccc3)NC(=O)[C@H](CCCNC(=N)N)NC1=O)C(=O)N[C@@H](Cc1c[nH]cn1)C(=O)N[C@@H](CCCNC(=N)N)C(=O)N[C@@H](CCCNC(=N)N)C(=O)N[C@H](C(=O)N[C@@H](CC(N)=O)C(=O)O)CSSC[C@H](NC(=O)[C@H](Cc1ccccc1)NC(=O)CN)C(=O)N[C@@H](Cc1c[nH]c3ccccc13)C(=O)N[C@@H](CC(N)=O)C(=O)N[C@@H](C(C)C)C(=O)N2 [compound 245] (H-GFCWNVCVYRNGVRFCHRRCN-OH; disulfide 3-20, 7-16 (inferred); N-terminus and C-terminus assumed)	0.15
CC(C)[C@@H]1NC(=O)CNC(=O)[C@H](CC(N)=O)NC(=O)[C@H](CCCNC(=N)N)NC(=O)[C@H](Cc2ccc(O)cc2)NC(=O)[C@H](C(C)C)NC(=O)[C@@H]2CSSC[C@H](NC(=O)[C@H](C(C)C)NC(=O)[C@H](CCCNC(=N)N)NC1=O)C(=O)N[C@@H](Cc1c[nH]cn1)C(=O)N[C@@H](CCCNC(=N)N)C(=O)N[C@@H](CCCNC(=N)N)C(=O)N[C@H](C(=O)N[C@@H](CC(N)=O)C(=O)O)CSSC[C@H](NC(=O)[C@H](Cc1ccccc1)NC(=O)[C@@H](N)CCCCN)C(=O)N[C@@H](Cc1c[nH]c3ccccc13)C(=O)N[C@@H](CC(N)=O)C(=O)N[C@@H](C(C)C)C(=O)N2 [compound 100] (H-KFCWNVCVYRNGVRVCHRRCN-OH; disulfide 3-20, 7-16 (inferred); N-terminus and C-terminus assumed)	0.22
CC(C)[C@@H]1NC(=O)CNC(=O)[C@H](CC(N)=O)NC(=O)[C@H](CCCNC(=N)N)NC(=O)[C@H](Cc2ccc(O)cc2)NC(=O)[C@H](C)NC(=O)[C@@H]2CSSC[C@H](NC(=O)[C@H](C(C)C)NC(=O)[C@H](CCCNC(=N)N)NC1=O)C(=O)N[C@@H](Cc1ccc(O)cc1)C(=O)N[C@@H](CCCNC(=N)N)C(=O)N[C@@H](CCCNC(=N)N)C(=O)N[C@H](C(=O)N[C@@H](CC(N)=O)C(=O)O)CSSC[C@H](NC(=O)[C@H](Cc1ccccc1)NC(=O)CN)C(=O)N[C@@H](Cc1c[nH]c3ccccc13)C(=O)N[C@@H](Cc1ccc(O)cc1)C(=O)N[C@@H](C(C)C)C(=O)N2 [compound 21] (H-GFCWYVCAYRNGVRVCYRRCN-OH; disulfide 3-20, 7-16 (inferred); N-terminus and C-terminus assumed)	0.015
CC(C)[C@@H]1NC(=O)CNC(=O)[C@H](CC(N)=O)NC(=O)[C@H](CCCNC(=N)N)NC(=O)[C@H](CCCCN)NC(=O)[C@H](C(C)C)NC(=O)[C@@H]2CSSC[C@H](NC(=O)[C@H](C(C)C)NC(=O)[C@H](CCCNC(=N)N)NC1=O)C(=O)N[C@@H](Cc1c[nH]cn1)C(=O)N[C@@H](CCCNC(=N)N)C(=O)N[C@@H](CCCNC(=N)N)C(=O)N[C@H](C(=O)N[C@@H](CC(N)=O)C(=O)O)CSSC[C@H](NC(=O)[C@H](Cc1ccccc1)NC(=O)CN)C(=O)N[C@@H](Cc1c[nH]c3ccccc13)C(=O)N[C@@H](CC(N)=O)C(=O)N[C@@H](C(C)C)C(=O)N2 [compound 305] (H-GFCWNVCVKRNGVRVCHRRCN-OH; disulfide 3-20, 7-16 (inferred); N-terminus and C-terminus assumed)	0.24
CC(C)[C@@H]1NC(=O)[C@@H]2CSSC[C@H](NC(=O)[C@H](CO)NC(=O)[C@H](CCCNC(=N)N)NC(=O)[C@H](CCCCN)NC(=O)CNC(=O)[C@H](CC(N)=O)NC(=O)[C@H](CCCCN)NC(=O)[C@H](Cc3ccc(O)cc3)NC1=O)C(=O)N[C@@H](Cc1ccc(O)cc1)C(=O)N[C@@H](CCCNC(=N)N)C(=O)N[C@@H](CCCNC(=N)N)C(=O)N[C@H](C(=O)N[C@@H](CC(N)=O)C(=O)O)CSSC[C@H](NC(=O)[C@H](Cc1ccccc1)NC(=O)CN)C(=O)N[C@@H](Cc1c[nH]c3ccccc13)C(=O)N[C@@H](Cc1c[nH]cn1)C(=O)N[C@@H](C(C)C)C(=O)N2 [compound 390] (H-GFCWHVCVYKNGKRSCYRRCN-OH; disulfide 3-20, 7-16 (inferred); N-terminus and C-terminus assumed)	0.13
CC(C)[C@@H]1NC(=O)[C@@H]2CSSC[C@H](NC(=O)[C@H](C)NC(=O)[C@H](CCCNC(=N)N)NC(=O)[C@H](CCCCN)NC(=O)CNC(=O)[C@H](CC(N)=O)NC(=O)[C@H](CCCNC(=N)N)NC(=O)[C@H](Cc3ccc(O)cc3)NC1=O)C(=O)N[C@@H](Cc1ccc(O)cc1)C(=O)N[C@@H](CCCNC(=N)N)C(=O)N[C@@H](CCCNC(=N)N)C(=O)N[C@H](C(=O)N[C@@H](CC(N)=O)C(=O)O)CSSC[C@H](NC(=O)[C@H](Cc1ccccc1)NC(=O)CN)C(=O)N[C@@H](Cc1c[nH]c3ccccc13)C(=O)N[C@@H](Cc1ccc(O)cc1)C(=O)N[C@@H](C)C(=O)N2 [compound 340] (H-GFCWYACVYRNGKRACYRRCN-OH; disulfide 3-20, 7-16 (inferred); N-terminus and C-terminus assumed)	0.02
CC(C)[C@@H]1NC(=O)[C@@H]2CSSC[C@H](NC(=O)[C@H](C(C)C)NC(=O)[C@H](CCCNC(=N)N)NC(=O)[C@H](C(C)C)NC(=O)[C@H](CCCCN)NC(=O)[C@H](CC(N)=O)NC(=O)[C@H](CCCNC(=N)N)NC(=O)[C@H](Cc3ccc(O)cc3)NC1=O)C(=O)N[C@@H](Cc1c[nH]cn1)C(=O)N[C@@H](CCCNC(=N)N)C(=O)N[C@@H](CCCNC(=N)N)C(=O)N[C@H](C(=O)N[C@@H](CC(N)=O)C(=O)O)CSSC[C@H](NC(=O)[C@H](Cc1ccccc1)NC(=O)CN)C(=O)N[C@@H](Cc1c[nH]c3ccccc13)C(=O)N[C@@H](CC(N)=O)C(=O)N[C@@H](C(C)C)C(=O)N2 [compound 227] (H-GFCWNVCVYRNKVRVCHRRCN-OH; disulfide 3-20, 7-16 (inferred); N-terminus and C-terminus assumed)	0.2
CC(C)[C@@H]1NC(=O)CNC(=O)[C@H](CCC(N)=O)NC(=O)[C@H](CCCNC(=N)N)NC(=O)[C@H](Cc2ccc(O)cc2)NC(=O)[C@H](C(C)C)NC(=O)[C@@H]2CSSC[C@H](NC(=O)[C@H](C(C)C)NC(=O)[C@H](CCCNC(=N)N)NC1=O)C(=O)N[C@@H](Cc1c[nH]cn1)C(=O)N[C@@H](CCCNC(=N)N)C(=O)N[C@@H](CCCNC(=N)N)C(=O)N[C@H](C(=O)N[C@@H](CC(N)=O)C(=O)O)CSSC[C@H](NC(=O)[C@H](Cc1ccccc1)NC(=O)CN)C(=O)N[C@@H](Cc1c[nH]c3ccccc13)C(=O)N[C@@H](CC(N)=O)C(=O)N[C@@H](C(C)C)C(=O)N2 [compound 233] (H-GFCWNVCVYRQGVRVCHRRCN-OH; disulfide 3-20, 7-16 (inferred); N-terminus and C-terminus assumed)	0.22
CC(C)[C@@H]1NC(=O)CNC(=O)[C@H](CC(N)=O)NC(=O)[C@H](CCCNC(=N)N)NC(=O)[C@H](CCCNC(=N)N)NC(=O)[C@H](C)NC(=O)[C@@H]2CSSC[C@H](NC(=O)[C@H](C(C)C)NC(=O)[C@H](CCCNC(=N)N)NC1=O)C(=O)N[C@@H](Cc1ccc(O)cc1)C(=O)N[C@@H](CCCNC(=N)N)C(=O)N[C@@H](CCCNC(=N)N)C(=O)N[C@H](C(=O)N[C@@H](CC(N)=O)C(=O)O)CSSC[C@H](NC(=O)[C@H](Cc1ccccc1)NC(=O)CN)C(=O)N[C@@H](Cc1c[nH]c3ccccc13)C(=O)N[C@@H](CC(N)=O)C(=O)N[C@@H](C)C(=O)N2 [compound 407] (H-GFCWNACARRNGVRVCYRRCN-OH; disulfide 3-20, 7-16 (inferred); N-terminus and C-terminus assumed)	0.12
CC(C)[C@@H]1NC(=O)CNC(=O)[C@H](CC(N)=O)NC(=O)[C@H](CCCNC(=N)N)NC(=O)[C@H](Cc2ccc(O)cc2)NC(=O)[C@H](C(C)C)NC(=O)[C@@H]2CSSC[C@H](NC(=O)[C@H](C(C)C)NC(=O)[C@H](CCCNC(=N)N)NC1=O)C(=O)N[C@@H](Cc1c[nH]cn1)C(=O)N[C@@H](CCCNC(=N)N)C(=O)N[C@@H](CCCNC(=N)N)C(=O)N[C@H](C(=O)N[C@@H](CC(N)=O)C(=O)O)CSSC[C@H](NC(=O)[C@H](Cc1ccccc1)NC(=O)CN)C(=O)N[C@@H](Cc1c[nH]c3ccccc13)C(=O)N[C@@H](CC(N)=O)C(=O)N[C@@H](Cc1ccccc1)C(=O)N2 [compound 260] (H-GFCWNFCVYRNGVRVCHRRCN-OH; disulfide 3-20, 7-16 (inferred); N-terminus and C-terminus assumed)	0.16
CC(C)C[C@@H]1NC(=O)CNC(=O)[C@H](CC(N)=O)NC(=O)[C@H](CCCNC(=N)N)NC(=O)[C@H](CCCCN)NC(=O)[C@H](C)NC(=O)[C@@H]2CSSC[C@H](NC(=O)[C@H](C(C)C)NC(=O)[C@H](CCCNC(=N)N)NC1=O)C(=O)N[C@@H](Cc1ccc(O)cc1)C(=O)N[C@@H](CCCNC(=N)N)C(=O)N[C@@H](CCCNC(=N)N)C(=O)N[C@H](C(=O)N[C@@H](CC(N)=O)C(=O)O)CSSC[C@H](NC(=O)[C@H](Cc1ccccc1)NC(=O)CN)C(=O)N[C@@H](Cc1c[nH]c3ccccc13)C(=O)N[C@@H](Cc1ccc(O)cc1)C(=O)N[C@@H](C)C(=O)N2 [compound 450] (H-GFCWYACAKRNGLRVCYRRCN-OH; disulfide 3-20, 7-16 (inferred); N-terminus and C-terminus assumed)	0.02
CC(C)[C@@H]1NC(=O)CNC(=O)[C@H](CC(N)=O)NC(=O)[C@H](CCCNC(=N)N)NC(=O)[C@H](Cc2ccc(O)cc2)NC(=O)[C@H](C(C)C)NC(=O)[C@@H]2CSSC[C@H](NC(=O)[C@H](C(C)C)NC(=O)[C@H](CCCNC(=N)N)NC1=O)C(=O)N[C@@H](Cc1c[nH]cn1)C(=O)N[C@@H](CCCNC(=N)N)C(=O)N[C@@H](CCCNC(=N)N)C(=O)N[C@H](C(=O)N[C@@H](CCCNC(=N)N)C(=O)O)CSSC[C@H](NC(=O)[C@H](Cc1ccccc1)NC(=O)CN)C(=O)N[C@@H](Cc1c[nH]c3ccccc13)C(=O)N[C@@H](CC(N)=O)C(=O)N[C@@H](C(C)C)C(=O)N2 [compound 289] (H-GFCWNVCVYRNGVRVCHRRCR-OH; disulfide 3-20, 7-16 (inferred); N-terminus and C-terminus assumed)	0.17
